In brackets after ≈: the same amount, converted by molar mass. Where two headings read alike, the source gives them in different places.
Assays:
ZFL cells [1] = experiment: Cell viability by MTT assay; type: cell-based, zebrafish; conditions: 72 h
Method: Cell viability was determined by MTT assay. A total of 10,000 cells/well were seeded in 96-well plates under culture conditions for 24 h. Then, the culture medium was replaced by contaminated medium (200 µL) with range of concentrations of BDE-47 (0.2–10 mg·L^−1). Three independent replicates with the same experimental conditions, a control group (cells without pollutant) and a blank group (only cell culture medium) were performed. After 72 h, 20 µL of MTT solution (5 mg·mL^−1) was added to provide a final concentration of 0.5 mg·mL^−1 and incubated for 4 h. Formazan produced in the MTT assay was dissolved using 100 μL DMSO, and absorbance was recorded at 595 nm. The results have been subsequently used for the design of the bioaccumulation and biotransformation experiment.

[2] = Abiotic (volatilization) losses, contaminated medium without cells; type: physicochemical
Method: A total of 2 × 10^6 ZFL cells were plated in P100 glass dishes and incubated for 24 h under standard culture conditions. Subsequently, the culture medium was replaced with a contaminated medium, which, according to the cell viability assay, maintained viability above 70% by the end of the exposure period (Section 2.3). Cells were exposed to 1.8 and 2.6 mg⋅L^−1 for 24, 48 and 72 h, in two independent experiments. Parallel experiments were conducted under identical conditions to assess losses: one set included cells without contaminated medium, and another consisted of contaminated medium without cells (“no cells”). The obtained pellets were collected from all exposure time, dried under a gentle stream of nitrogen and weighed on a precision analytical balance (±0.00001 g). Finally, the dried cell pellets and their corresponding medium collected at all exposure times, including the starting medium (“t = 0 h”), were stored at −20 °C until analysis.
(§1) One of the objectives was to assess whether cell lines can be used within the BCF-IVIVE model, relying on intrinsic clearance in vitro, to estimate the biotransformation rate which is subsequently extrapolated to adult fish. This approach is based on the model developed by Nichols et al. and is endorsed by the OECD guideline 319A [10] and OECD 2018a. Briefly, the log10-transformed substrate experimental concentrations in the medium (Cmed) were plotted against time, and the first-order elimination rate constant (ke, h^−1) was determined as −2.3 × slope of the log-linear decline. Black et al. indicate that a correction to the elimination rate constant (ke) should be applied when the following conditions are met: (i) abiotic losses from volatilization, calculated by comparing the recovery of negative control samples (“no cells”) at each exposure time to the initial time, fall outside the acceptable range of 80–120%, (ii) the loss process follows first order kinetics, and (iii) the ratio of ke and the volatilization rate constant (kvolat) is below 10 (ke/kvolat < 10). Then, the constant corrected for losses due to volatilization (ke,loss) was determined as −2.3 × the difference of the slopes of the sample and the loss control of the log-linear descent. The in vitro constant was then extrapolated to obtain an in vivo metabolization constant (kMET). This was done using experimental cell concentration (CHEP, 10^6 cells/mL) and default parameters derived from rainbow trout. In this study, in addition to estimating BCF with the official model parameters derived from rainbow trout (BCFIVIVE,RT), BCF was also estimated with the literature-derived parameters for zebrafish (BCFIVIVE,ZF), due to the use of ZFL cells. Finally, the BCF was estimated by the ratio of concentration in the organism to concentration in the medium, following the standardized model. The concentration in the organism was predicted using the one-compartment model given by Arnot and Gobas, which includes the rate constants describing chemical uptake (k1), loss through the gills (k2), fecal egestion (kE), growth rate (kG) and metabolization rate (kMET). Except for kMET, which is estimated experimentally in vitro, the rest are only dependent on the log KOW of the compound. On the other hand, due to the use of cell lines, the free concentration estimated was introduced instead of the total concentration in the medium (CW,TOT).

ZFL cells [3] = experiment: Substrate depletion in ZFL cells, inputs of the IVIVE-BCF model; type: in vitro ADME, zebrafish
From the text: One of the objectives was to assess whether cell lines can be used within the BCF-IVIVE model, relying on intrinsic clearance in vitro, to estimate the biotransformation rate which is subsequently extrapolated to adult fish. This approach is based on the model developed by Nichols et al. and is endorsed by the OECD guideline 319A [10] and OECD 2018a. Briefly, the log10-transformed substrate experimental concentrations in the medium (Cmed) were plotted against time, and the first-order elimination rate constant (ke, h^−1) was determined as −2.3 × slope of the log-linear decline. Black et al. indicate that a correction to the elimination rate constant (ke) should be applied when the following conditions are met: (i) abiotic losses from volatilization, calculated by comparing the recovery of negative control samples (“no cells”) at each exposure time to the initial time, fall outside the acceptable range of 80–120%, (ii) the loss process follows first order kinetics, and (iii) the ratio of ke and the volatilization rate constant (kvolat) is below 10 (ke/kvolat < 10). Then, the constant corrected for losses due to volatilization (ke,loss) was determined as −2.3 × the difference of the slopes of the sample and the loss control of the log-linear descent. The in vitro constant was then extrapolated to obtain an in vivo metabolization constant (kMET). This was done using experimental cell concentration (CHEP, 10^6 cells/mL) and default parameters derived from rainbow trout. In this study, in addition to estimating BCF with the official model parameters derived from rainbow trout (BCFIVIVE,RT), BCF was also estimated with the literature-derived parameters for zebrafish (BCFIVIVE,ZF), due to the use of ZFL cells. Finally, the BCF was estimated by the ratio of concentration in the organism to concentration in the medium, following the standardized model. […]

rainbow trout [4] = experiment: IVIVE-BCF model with rainbow trout default parameters; type: in vitro ADME; conditions: for BCFIVIVE, RT: ZFL cells, rainbow trout parameters
From the text: as §1

ZFL cells [5] = test system: ZFL cells; set-up: method as in PMID 25544063; conditions: 10% FBS, cited from earlier work
[6] = set-up: method as in PMID 37289209; conditions: initial exposure 20 mg·L^−1, HepG2 cell assay at 37 °C; cited from earlier work
zebrafish = experiment: IVIVE-BCF model with zebrafish default parameters; type: in vitro ADME; conditions: k1 and k2 from experimental Ccell and Cfree
rainbow trout [7] = experiment: IVIVE-BCF model with rainbow trout default parameters; type: in vitro ADME; conditions: k1 and k2 from experimental Ccell and Cfree
[8] = test system: Mytilus galloprovincialis (mussel); conditions: cited from earlier work
young Psetta maxima = test system: young Psetta maxima; set-up: method as in doi:10.1007/s11270-014-2072-0; conditions: cited from earlier work

Brc1ccc(Oc2ccc(Br)cc2Br)c(Br)c1 [BDE-47, 2,2′,4,4′-tetrabromodiphenyl ether]
LC30 after applying percentage of Cfree (ZFL cells [1]; bioavailable concentration): 0.00055 µg/mL | concentration decreasing viability by 30% (LC30) (ZFL cells [1]; nominal concentration, 10% FBS): 0.45 µg/mL | concentration decreasing viability by 50% (LC50) (ZFL cells [1]; nominal concentration, 10% FBS): 2.03 µg/mL | Recovery of losses from volatilization (% Rec. Vol.) ([2]; 24h, 1.8 mg·L-1, no cells vs time 0h): 76% | Recovery of losses from volatilization (% Rec. Vol.) ([2]; 24h, 2.6 mg·L-1, no cells vs time 0h): 73% | Recovery of losses from volatilization (% Rec. Vol.) ([2]; 48h, 1.8 mg·L-1, no cells vs time 0h): 69% | Recovery of losses from volatilization (% Rec. Vol.) ([2]; 48h, 2.6 mg·L-1, no cells vs time 0h): 63% | Recovery of losses from volatilization (% Rec. Vol.) ([2]; 72h, 1.8 mg·L-1, no cells vs time 0h): 68% | Recovery of losses from volatilization (% Rec. Vol.) ([2]; 72h, 2.6 mg·L-1, no cells vs time 0h): 52% | decrease in Cmedium,no cells with respect to nominal concentration ([2]; Cnominal 1.8 mg·L^−1, cell-free sample): 29% | decrease in Cmedium,no cells with respect to nominal concentration ([2]; Cnominal 2.6 mg·L^−1, cell-free sample): 37% | ke,loss (ZFL cells [3]; Experiment 1.8 mg·L-1, corrected for volatilization losses): 0.012 h⁻¹ | ke,loss (ZFL cells [3]; Experiment 2.6 mg·L-1, corrected for volatilization losses): 0.002 h⁻¹ | Cw, TOT (Cfree,exp) (ZFL cells [3]; Experiment 2.6 mg·L-1, input parameter): 0.0016 mg/L | CLH (rainbow trout [4]; 1.8 mg·L-1, RT): 8.217 mL/h/kg | CLIN VITRO, INT (rainbow trout [4]; 1.8 mg·L-1, RT): 0.0220 mL/h/106 cells | kMET (rainbow trout [4]; 1.8 mg·L-1, RT): 0.0092 day⁻¹ | CLH (rainbow trout [4]; 2.6 mg·L-1, RT): 1.38 mL/h/kg | CLIN VITRO, INT (rainbow trout [4]; 2.6 mg·L-1, RT): 0.0037 mL/h/106 cells | kMET (rainbow trout [4]; 2.6 mg·L-1, RT): 0.0015 day⁻¹ | BCFIVIVE, RT (rainbow trout [4]; Cnominal 1.8 mg·L^−1): 7221 L/kg | BCFIVIVE, RT (rainbow trout [4]; Cnominal 2.6 mg·L^−1): 14,184 L·kg^−1 | LC50 (24 h) (ZFL cells [5]; 24 h): 1.60 µg/mL (≈ 3.29 µM) | LC50 (96 h) (ZFL cells [5]; 96 h): 1.26 µg/mL (≈ 2.59 µM) | volatilization loss [6]: 14% | BCFIVIVE, ZF, exp (zebrafish; Cnominal 1.8 mg·L^−1): 22,614 L·kg^−1 | BCFIVIVE, ZF, exp (zebrafish; Cnominal 2.6 mg·L^−1): 38,948 L·kg^−1 | BCFIVIVE, RT, exp (rainbow trout [7]; Cnominal 1.8 mg·L^−1): 26,306 L·kg^−1 | BCFIVIVE, RT, exp (rainbow trout [7]; Cnominal 2.6 mg·L^−1): 48,635 L·kg^−1 | BCFk ([8]; 0.31 ng·L^−1): 26,000 L·kg^−1 | BCFk ([8]; 8 µg·L^−1): 10,900 L·kg^−1 | BCFk (young Psetta maxima; 0.001 µg·L^−1): 33,103 L·kg^−1 | BCFk (young Psetta maxima; 0.1 µg·L^−1): 15,531 L·kg^−1 | BCFk (young Psetta maxima; 1 µg·L^−1): 24,125 L·kg^−1

From article PMC12194305, “Assessing Bioconcentration and Biotransformation of BDE-47 In Vitro: The Relevance of Bioavailable and Intracellular Concentrations” (Journal of Xenobiotics, 2025)
